Results on 1 compound are retold here after patent US6930113B2, “Nitrosated and nitrosylated phosphodiesterase inhibitors, compositions and methods of use” (Nitromed, Inc., priority 1996, dated 2005).

The subject of this test is Human corpus cavernosum tissue. Put plainly: In vitro comparative relaxation responses (isometric tension of tissue strips in organ chambers). The class given is cell-based. As to conditions: doses of 10 μM and 30 μM; tissue contracted with phenylephrine 7×10^−7 M; compared with equimolar dipyridamole; FIG. 58. An excerpt:
Human corpus cavernosum tissue biopsies were obtained at the time of penile prosthesis implantation from impotent men. The tissue was maintained in a chilled Krebs-bicarbonate solution prior to assay. The tissue was cut into strips of 0.3×0.3×1 cm and suspended in organ chambers for isometric tension measurement. Tissues were incrementally stretched until optimal isometric tension for contraction was obtained. Once this was achieved, the tissues were contracted with phenylephrine (7×10^−7 M) and once a stable contraction was achieved, the tissues were exposed to either dipyridamole or the compound of Example 1 (10^−6 to 3×10^−5 M) by cumulative additions to the chamber. At the end of the experiment, papaverine (10^−4 M) was added to obtain maximal relaxation. […] Data were expressed as the percent loss in tone from the phenylephrine-induced contraction (0%=phenylephrine contraction; −100%=tone after administration of papaverine).

`CC(C)(CC(=O)OCCN(CCOC(=O)CC(C)(C)SN=O)c1nc(N2CCCCC2)c2nc(N(CCOC(=O)CC(C)(C)SN=O)CCOC(=O)CC(C)(C)SN=O)nc(N3CCCCC3)c2n1)SN=O` [Example 1, 2,6-bis(Diethyl(3-methyl-3-(nitrosothio)butyric acid ester)amino)-4,8-dipiperidinopyrimido-[5,4-d]-pyrimidine]: the “relaxing the phenylephrine-induced contraction (percent loss in tone from the phenylephrine-induced contraction)” value is given as “more efficacious”.
